Measurements: patent US20240131180A1, “DRUG ANTIBODY CONJUGATES” (PHARMA MAR, S.A., priority 2020, published 2024)
“And” between values parts separate entries of the source, which are not always exact repeats. Equal entries are not always repeated. Where two headings read alike, the source gives them in different places.

How the values were obtained:
MDA-MB-231 [1] = assay: SRB colorimetric assay of cell growth and viability, MDA-MB-231; type: cell-based; details: for LC50 / GI50: Homo sapiens; for LC50: MDA-MB-231, 72 h, read-out: LC50 MDA-MB-231; for GI50: MDA-MB-231, NCI algorithm; for GI50 / TGI MDA-MB-231: 72 hours treatment, SRB; for TGI MDA-MB-231: total cell growth inhibition
Text: (§1) Using the mean±SD of triplicate cultures, a dose-response curve was automatically generated using nonlinear regression analysis.

A549 = assay: SRB colorimetric assay of cell growth and viability, A549; type: cell-based; details: for CC50 / GI50: Homo sapiens; for CC50: A549, 72 h, read-out: LC50 A549; for GI50: A549, NCI algorithm; for GI50 / TGI A549: 72 hours treatment, SRB; for TGI A549: total cell growth inhibition
Text: as §1

HT29 = assay: SRB colorimetric assay of cell growth and viability, HT29; type: cell-based; details: for CC50 / GI50: Homo sapiens; for CC50: HT-29, 72 h, read-out: LC50 HT29; for GI50: HT-29, NCI algorithm; for GI50 / TGI HT29: 72 hours treatment, SRB; for TGI HT29: total cell growth inhibition
Text: as §1

PSN1 = assay: SRB colorimetric assay of cell growth and viability, PSN1; type: cell-based; details: for LC50 / GI50: Homo sapiens; for LC50: PSN1, 72 h, read-out: LC50 PSN1; for GI50: PSN1, NCI algorithm; for GI50 / TGI PSN1: 72 hours treatment, SRB; for TGI PSN1: total cell growth inhibition
Text: as §1

[2] = test system: SK-BR-3, HCC-1954, MDA-MB-231 and MCF-7 cells; assay: cells; type: cell-based; details: Homo sapiens, 72 h
Protocol: (§2) For SK-BR-3, HCC-1954, MDA-MB-231 and MCF-7 cells, a colorimetric assay using Sulforhodamine B (SRB) was adapted for quantitative measurement of cell growth and cytotoxicity, as described in V. Vichai and K. Kirtikara. Sulforhodamine B colorimetric assay for cytotoxicity screening. Nature Protocols, 2006, 1, 1112-1116. Briefly, cells were seeded in 96-well microtiter plates and allowed to stand for 24 hours in drug-free medium before treatment with vehicle alone or with the tested substances for 72 hours.
(§3) Cell survival was expressed as percentage of control, untreated cell survival.

HCC-1954 = assay: SRB cytotoxicity assay, HCC-1954 (HER2+); type: cell-based; details: Homo sapiens, HCC1954, 72 h, read-out: IC50 HCC-1954
Protocol: as §2, §3

MDA-MB-231 [3] = assay: SRB cytotoxicity assay, MDA-MB-231 (HER2-); type: cell-based; details: Homo sapiens, MDA-MB-231, 72 h, read-out: IC50 MDA-MB-231
Protocol: as §2, §3

SK-BR-3 = assay: SRB cytotoxicity assay, SK-BR-3 (HER2+); type: cell-based; details: Homo sapiens, SK-BR-3, 72 h, read-out: IC50 SK-BR-3
Protocol: as §2, §3

MCF-7 = assay: SRB cytotoxicity assay, MCF-7 (HER2-); type: cell-based; details: Homo sapiens, MCF7, 72 h, read-out: IC50 MCF-7
Protocol: as §2, §3

P388 lymphoma = details: very low concentrations; cited from earlier work
Lewis lung carcinoma = details: very low concentrations; cited from earlier work
B16 melanoma = details: very low concentrations; cited from earlier work
[4] = read-out: geometric mean IC50 value across the whole cell panel

| Compound | LC50 (MDA-MB-231 [1]) [nM] | GI50 (MDA-MB-231 [1]) [nM] | TGI MDA-MB-231 (MDA-MB-231 [1]) [Molar] | CC50 (A549) [nM] | GI50 (A549) [nM] | TGI A549 (A549) [Molar] | CC50 (HT29) [nM] | GI50 (HT29) [nM] | TGI HT29 (HT29) [Molar] | LC50 (PSN1) [nM] | GI50 (PSN1) [nM] | TGI PSN1 (PSN1) [Molar] | also measured |
| --- | --- | --- | --- | --- | --- | --- | --- | --- | --- | --- | --- | --- | --- |
| COc1ccc2[nH]c3c(c2c1)C[C@H](CO)N[C@]31CS[C@@H]2c3c(OC(C)=O)c(C)c4c(c3[C@H](COC1=O)N1[C@@H]2[C@@H]2N[C@@H](Cc3cc(C)c(OC)c(O)c32)[C@@H]1O)OCO4 [Compound 11-R] | 7.24 | 1.62 | 2.87E−09 | > 125 | 15 | 4.50E−08 | > 125 | 2 | 3.62E−09 | 15 | 2.12 | 3.62E−09 |  |
| COc1ccc2[nH]c3c(c2c1)CCN[C@]31CS[C@@H]2c3c(OC(C)=O)c(C)c4c(c3[C@H](COC1=O)N1[C@@H]2[C@@H]2N[C@@H](Cc3cc(C)c(OC)c(O)c32)[C@@H]1O)OCO4 [Compound 1] | 2.46 | 0.752 | 1.30E−09 | 7.78 | 1.82 | 3.37E−09 | > 130 | 1.28 | 1.43E−09 | 2.34 | 1.22 | 1.69E−09 | IC50 ([2]; read-out: IC50 values in all the tumor cell lines (range)): 0.882 to 1.95 nM; IC50 [2, 4]: 1.32 nM; IC50 (HCC-1954): 0.0015 µg/mL and 1.95 nM; IC50 (MDA-MB-231 [3]): 0.00068 µg/mL and 0.882 nM; IC50 (SK-BR-3): 0.00086 µg/mL and 1.12 nM; IC50 (MCF-7): 0.0012 µg/mL and 1.56 nM |
| COc1c(C)cc2c(c1O)[C@H]1N[C@@H](C2)[C@H](O)N2[C@H]1[C@@H]1SC[C@]3(NCCc4c3[nH]c3ccccc43)C(=O)OC[C@H]2c2c3c(c(C)c(OC(C)=O)c21)OCO3 [ET-722, Ecteinascidin 722] | 2.56 | 0.891 | 1.48E−09 | > 135 | 1.35 | 1.35E−09 | > 135 | 1.35 | 1.48E−09 | 3.1 | 1.48 | 2.16E−09 | protection of mice in vivo against P388 lymphoma (P388 lymphoma): protects mice in vivo at very low concentrations; protection of mice in vivo against Lewis lung carcinoma (Lewis lung carcinoma): protects mice in vivo at very low concentrations; protection of mice in vivo against B16 melanoma (B16 melanoma): protects mice in vivo at very low concentrations |
| COc1ccc2[nH]c3c(c2c1)C[C@H](CO)N[C@]31CS[C@@H]2c3c(OC(C)=O)c(C)c4c(c3[C@H](COC1=O)N1[C@@H]2[C@@H]2N[C@@H](Cc3cc(C)c(OC)c(O)c32)[C@@H]1C#N)OCO4 [Compound 10-R] | 3.09 | 0.679 | 1.21E−09 | > 123 | 4.32 | 1.20E−08 | > 123 | 0.864 | 1.61E−09 | > 123 | 0.753 | 1.48E−09 |  |
| COc1c(C)cc2c(c1O)[C@H]1N[C@@H](C2)[C@H](O)N2[C@H]1[C@@H]1SC[C@]3(NCCc4c3oc3ccccc43)C(=O)OC[C@H]2c2c3c(c(C)c(OC(C)=O)c21)OCO3 [Compound 15] | 24.3 | 7.14 | 1.16E−08 | > 135 | 12.1 | 2.56E−08 | > 135 | 8.76 | 9.57E−09 | 45.8 | 9.98 | 1.48E−08 |  |
| COc1ccc2[nH]c3c(c2c1)CCN[C@]31CS[C@@H]2c3c(OC(C)=O)c(C)c4c(c3[C@H](COC1=O)N1[C@@H]2[C@@H]2N[C@@H](Cc3cc(C)c(OC)c(O)c32)[C@@H]1C#N)OCO4 [Compound 2] | 5.77 | 5 | 5.26E−09 | > 1280 | 12.8 | 1.28E−08 | ≥ 1280 | 5.13 | 5.64E−09 | 5 | 2.05 | 3.08E−09 | IC50 [2, 4]: 1.53 nM; IC50 (HCC-1954): 0.0018 µg/mL and 2.31 nM; IC50 (MDA-MB-231 [3]): 0.00069 µg/mL and 0.885 nM; IC50 (SK-BR-3): 0.00096 µg/mL and 1.23 nM; IC50 (MCF-7): 0.0017 µg/mL and 2.18 nM |
| COc1c(C)cc2c(c1O)[C@H]1N[C@@H](C2)[C@H](C#N)N2[C@H]1[C@@H]1SC[C@]3(NCCc4c3oc3ccccc43)C(=O)OC[C@H]2c2c3c(c(C)c(OC(C)=O)c21)OCO3 [Compound 14] | 29.3 | 6.66 | 1.13E−08 | > 133 | 8.79 | 1.73E−08 | > 133 | 8.52 | 9.19E−09 | 22.6 | 9.72 | 1.33E−08 |  |
